# From patent publication US11452686B2, “Cosmetic active substance obtained through bioconversion by Lactobacillus arizonensis of its original substrate, method for obtaining same composition comprising same, and uses” (SOCIETE INDUSTRIELLE LIMOUSINE D'APPLICATION BIOLOGIQUE, priority 2019, dated 2022)
# How the values were obtained:
# Type in all cases: cell-based
# filaggrin = assay: Filaggrin synthesis by immunostaining on normal human keratinocytes subjected to a dry environment
# Description: Thus, the use of an active substance according to the invention makes it possible to restore the epidermal differentiation process in order to obtain a cohesive structure. The second study on the keratinocytes makes it possible to compare the effect of the products of the various examples 1 to 5. To do this, their capacity to restore the synthesis of filaggrin by human keratinocytes subjected to a dry environment is compared. This study was carried out by immunocytology on normal human keratinocytes subjected to a dry environment. The procedure is as follows:
# Normal human keratinocytes are seeded and incubated at 37° C. in an atmosphere containing 5% CO2 for several days.
# Then, the keratinocytes are either incubated at 37° C. under 5% CO2 in an environment of 40% relative humidity in order to mimic a dry environment, or they are kept in an environment that is saturated with humidity (82% relative humidity) in the presence or absence of the products of examples 1 to 5 or in the presence of a sodium lactate solution at 45 g/L (pH 5.4).
# After 24 h, immunostaining is performed using an anti-filaggrin primary antibody and a coupled secondary antibody, Alexa Flor® 488.
# The nuclei are stained with a DAPI solution.
# Viewing is performed using an IX 70 microscope (Olympus) coupled to an image analysis system (NIS-Elements software, Nikon).
# The synthesized filaggrin is proportional to the intensity of green fluorescence present on the keratinocytes. A quantitative analysis of the images was performed using Matlab® software. The results are expressed in arbitrary units (AU) in Table 6 (Effect of the various examples on their ability to restore the synthesis of filaggrin in human keratinocytes subjected to water stress).
# Collagen VII = Collagen VII mRNA expression by quantitative PCR on normal human fibroblasts; conditions: 10 ng/mL (positive control)
# Description: (§1) This study was carried out by PCR on normal human fibroblasts.
# (§2) I. Culturing and Treatment of Fibroblasts: • Normal human fibroblasts are inoculated into a culture medium and then incubated at 37° C. in an atmosphere containing 5% CO2. • Then, the fibroblasts are cultured in the presence or absence of the active substance of example 1 at 0.5% and 1% (V/V).
# (§3) TGF-β at 10 ng/mL is used as a positive control. Finally, the fibroblasts are recovered and the total RNAs extracted.
# (§4) The RNAs were reverse-transcribed, and the complementary DNAs obtained were analyzed by the quantitative PCR technique. The mRNAs of the RPS18 protein, internal reference control, were analyzed in parallel with the mRNAs of Coll I, Coll III, Coll IV, Coll VII and HAS-2.
# (§5) The quantification of the incorporation of fluorescence (SYBR Green) is measured continuously using a thermal cycler. The RQ (relative quantification) analysis is performed using software.
# Collagen IV = Collagen IV mRNA expression by quantitative PCR on normal human fibroblasts; conditions: 10 ng/mL (positive control)
# Description: as §1, §2, §3, §4, §5
# Collagen III = Collagen III mRNA expression by quantitative PCR on normal human fibroblasts; conditions: 10 ng/mL (positive control)
# Description: as §1, §2, §3, §4, §5
# [1] = test system: HAS-2 (hyaluronan synthase 2); assay: HAS-2 mRNA expression by quantitative PCR on normal human fibroblasts; conditions: 10 ng/mL (positive control)
# Description: as §1, §2, §3, §4, §5
# Collagen I = Collagen I mRNA expression by quantitative PCR on normal human fibroblasts; conditions: 10 ng/mL (positive control)
# Description: as §1, §2, §3, §4, §5
Molecule,Restoration of filaggrin synthesis (in words) (filaggrin; human keratinocytes subjected to water stress),"Synthesis of filaggrin (filaggrin; keratinocytes, water stress (40% relative humidity), 24 h, product at 0.5%) [AU]","Ability to restore filaggrin synthesis (filaggrin; keratinocytes, water stress, product at 0.5%) [%]",Collagen VII Efficacy/control (Collagen VII),Collagen VII Expression (Collagen VII) [%],Collagen IV Efficacy/control (Collagen IV),Collagen IV Expression (Collagen IV) [%],Collagen III Efficacy/control (Collagen III),Collagen III Expression (Collagen III) [%],HAS-2 Expression [1] [%],Collagen I Efficacy/control (Collagen I),Collagen I Expression (Collagen I) [%]
CC(O)C(=O)[O-].[Na+] (stereo not drawn) [Sodium lactate],does not restore filaggrin synthesis,909,7,,,,,,,,,
TGF-β,,,,+234%,334,+218%,318,+39%,139,78,+126%,226
